Molecules are shown by their SMILES.

The target in the experiment is Kappa-type opioid receptor (Homo sapiens) (UniProt P41145). In words: kappa opioid receptor antagonism potency – cell-based, fluorescence, dose response, late-stage follow-up (AID 652032). Conditions: OPRK1-expressing cells, fluorescence antagonist read-out.
Chain of Kappa-type opioid receptor (Homo sapiens) (P41145 whole entry, looked up): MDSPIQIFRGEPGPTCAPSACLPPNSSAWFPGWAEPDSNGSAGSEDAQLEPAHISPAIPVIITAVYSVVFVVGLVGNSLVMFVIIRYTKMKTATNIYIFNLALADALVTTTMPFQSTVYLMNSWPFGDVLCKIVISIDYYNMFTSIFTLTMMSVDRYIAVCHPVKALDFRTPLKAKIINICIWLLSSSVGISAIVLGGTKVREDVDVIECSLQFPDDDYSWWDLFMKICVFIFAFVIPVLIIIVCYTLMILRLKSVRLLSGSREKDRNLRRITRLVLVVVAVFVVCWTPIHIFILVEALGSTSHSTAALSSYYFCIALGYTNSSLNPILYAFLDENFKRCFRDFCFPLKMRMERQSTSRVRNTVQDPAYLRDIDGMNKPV
As for `COC(=O)c1cc(Br)cnc1N1CCC(N(C)C2CCCCC2)CC1`, the IC50 – broadly, the concentration needed to halve the response being measured – is 2700 nM.
As for `CCOC(=O)c1cc(C(=O)OC)c(C)nc1N1CCC(NC2CCCCC2)CC1`, the figure is 2600 nM; as for `COC(=O)c1cc(Br)cnc1N1CCC(NCCO)CC1`, 9200 nM.
As for `COC(=O)c1cc(Br)cnc1N1CCC(NC2CCCCC2OC)CC1` (configuration not stated), the figure is 267 nM; as for `COC(=O)c1cc(Br)cnc1N1CCC(CNC2CCCCC2)CC1`, 3500 nM; as for `CC(C)OC(=O)c1cc(Br)cnc1N1CCC(NC2CCCCC2)CC1`, 398 nM.
Turning to `COC(=O)c1cc(Br)cnc1N1CCC(N[C@@H]2CCCC[C@H]2O)CC1`, the IC50 was 231 nM.
As to `COC(=O)c1cc(Br)cnc1N1CCC(NC2CCCCC2)CC1`, the IC50 is 133 nM.
As for `COC(=O)c1cc(Br)cnc1N1CCC(NC2CCCCC2)C1` (configuration not stated), the figure is 185 nM.
As for `COC(=O)c1cc(Br)cnc1N1CCC(NC2CCCCCC2)CC1`, the figure is 110 nM.
The same measure for `COC(=O)c1cc(Br)cnc1N1CCC(N[C@H](C)C2CCCCC2)CC1`: 6800 nM.
Consider `COC(=O)c1cc(Br)cnc1N1CCC(NC2CCCC(O)C2)CC1` (configuration not stated), for which the IC50 was 652 nM.
The same measure for `COC(=O)c1cc(I)cnc1N1CCC(NC2CCCCC2)CC1`: 79 nM; for `COC(=O)c1cc(Br)cnc1N1CCC(NC2CCOCC2)CC1`: 621 nM.
On to `COC(=O)c1cc(NC(C)=O)cnc1N1CCC(NC2CCCCC2)CC1`, for which the IC50 is 628 nM.
The same measure for `O=C(O)c1cc(Br)cnc1N1CCC(NC2CCCCC2)CC1`: 5200 nM; for `COC(=O)c1cccnc1N1CCC(NC2CCCCC2)C(O)C1` (configuration not stated): 2200 nM; for `COC(=O)c1cc(Cl)cnc1N1CCC(NC2CCCCC2)CC1`: 159 nM.
As for `COC(=O)c1cc(Br)cnc1N1CCC(NC2CCCC2)CC1`, the figure is 120 nM; as for `COC(=O)c1cc(Br)cnc1N1CCC(NC2CCC(C)CC2)CC1` (configuration not stated), 536 nM; as for `COC(=O)c1cc(F)cnc1N1CCC(NC2CCCCC2)CC1`, 6600 nM.
As for `COC(=O)c1cc(Br)cnc1N1CCC(N)C(O)C1` (configuration not stated), the figure is 5900 nM.

Values taken from PubChem BioAssay AID652032 (The Scripps Research Institute Molecular Screening Center, 2013).
